Experimental data as given in the supplement of paper PMC10307832.

How the values were obtained:
Assay in all cases: relative viability (nuclei count vs DMSO), 5 days (fraction); higher = more cells survive
[1] = tested on: NCI-H1299
Summary of the method: (§1)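 A single step with final 0.05% Triton X-100, 1% formaldehyde and 1 ug/ml Hoechst fixed the cells and stained nuclei 5 days after treatment. Lung cancer cell lines in 1536-well plates had been treated by pin tool the day after seeding with one drug alone or a fixed anchor-drug dose plus five library-drug doses (not always all listed) in √10 steps, and nuclei were counted on 4× images. Relative viability is the ratio of nuclei in treated wells to nuclei in vehicle wells, taken as the median of duplicate plates.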

[2] = tested on: HCC-44
Summary of the method: as §1

[3] = tested on: NCI-H1703
Summary of the method: as §1

[4] = tested on: NCI-H2087
Summary of the method: as §1

[5] = tested on: IA-LM
Summary of the method: as §1

[6] = tested on: Calu-6
Summary of the method: as §1

[7] = tested on: NCI-H1648
Summary of the method: as §1

[8] = tested on: EBC-1
Summary of the method: as §1

[9] = tested on: HCC-78
Summary of the method: as §1

[10] = tested on: NCI-H322M
Summary of the method: as §1

[11] = tested on: A549
Summary of the method: as §1

CCNC(=O)c1noc(-c2cc(C(C)C)c(O)cc2O)c1-c1ccc(CN2CCOCC2)cc1 [Luminespib] + O=C(c1cc(Cc2n[nH]c(=O)c3ccccc23)ccc1F)N1CCN(C(=O)C2CC2)CC1 [Olaparib] (partner 8 µM)
relative viability ([1]; first compound 0.002 µM): 0.954
relative viability ([1]; first compound 0.006325 µM): 0.921
relative viability ([1]; first compound 0.02 µM): 0.959
relative viability ([1]; first compound 0.06325 µM): 0.467
relative viability ([1]; first compound 0.2 µM): 0.147
relative viability ([2]; first compound 0.002 µM): 0.981
relative viability ([2]; first compound 0.006325 µM): 0.952
relative viability ([2]; first compound 0.02 µM): 1.07
relative viability ([2]; first compound 0.06325 µM): 0.944
relative viability ([2]; first compound 0.2 µM): 0.52
relative viability ([3]; first compound 0.002 µM): 0.401
relative viability ([3]; first compound 0.006325 µM): 0.358
relative viability ([3]; first compound 0.02 µM): 0.651
relative viability ([3]; first compound 0.06325 µM): 0.127
relative viability ([3]; first compound 0.2 µM): 0.104
relative viability ([4]; first compound 0.002 µM): 0.639
relative viability ([4]; first compound 0.006325 µM): 0.518
relative viability ([4]; first compound 0.02 µM): 0.559
relative viability ([4]; first compound 0.06325 µM): 0.116
relative viability ([4]; first compound 0.2 µM): 0.113
relative viability ([5]; first compound 0.002 µM): 0.919
relative viability ([5]; first compound 0.006325 µM): 0.785
relative viability ([5]; first compound 0.02 µM): 0.816
relative viability ([5]; first compound 0.06325 µM): 0.0533
relative viability ([5]; first compound 0.2 µM): 0.0667
relative viability ([6]; first compound 0.002 µM): 0.652
relative viability ([6]; first compound 0.006325 µM): 0.545
relative viability ([6]; first compound 0.02 µM): 0.696
relative viability ([6]; first compound 0.06325 µM): 0.111
relative viability ([6]; first compound 0.2 µM): 0.098
relative viability ([7]; first compound 0.002 µM): 0.765
relative viability ([7]; first compound 0.006325 µM): 0.653
relative viability ([7]; first compound 0.02 µM): 0.784
relative viability ([7]; first compound 0.06325 µM): 0.505
relative viability ([7]; first compound 0.2 µM): 0.484
relative viability ([8]; first compound 0.002 µM): 0.794
relative viability ([8]; first compound 0.006325 µM): 0.586
relative viability ([8]; first compound 0.02 µM): 0.572
relative viability ([8]; first compound 0.06325 µM): 0.122
relative viability ([8]; first compound 0.2 µM): 0.124
relative viability ([9]; first compound 0.002 µM): 0.773
relative viability ([9]; first compound 0.006325 µM): 0.785
relative viability ([9]; first compound 0.02 µM): 0.723
relative viability ([9]; first compound 0.06325 µM): 0.643
relative viability ([9]; first compound 0.2 µM): 0.32
relative viability ([10]; first compound 0.002 µM): 0.799
relative viability ([10]; first compound 0.006325 µM): 0.738
relative viability ([10]; first compound 0.02 µM): 0.729
relative viability ([10]; first compound 0.06325 µM): 0.344
relative viability ([10]; first compound 0.2 µM): 0.439
relative viability ([11]; first compound 0.002 µM): 0.282
relative viability ([11]; first compound 0.006325 µM): 0.174
relative viability ([11]; first compound 0.02 µM): 0.194
relative viability ([11]; first compound 0.06325 µM): 0.0387
relative viability ([11]; first compound 0.2 µM): 0.0323

Cc1csc(=NC2CCCCC2)n1/N=C/c1ccc(O)c(O)c1O [MIM1] + NC(=O)Nc1cc(-c2cccc(F)c2)sc1C(=O)N[C@H]1CCCNC1 [AZD7762] (partner 0.2 µM)
relative viability ([2]; first compound 0.2 µM): 0.985
relative viability ([2]; first compound 0.6325 µM): 0.985
relative viability ([2]; first compound 2 µM): 0.961
relative viability ([2]; first compound 6.325 µM): 0.947
relative viability ([2]; first compound 20 µM): 0.521
relative viability ([3]; first compound 0.2 µM): 0.124
relative viability ([3]; first compound 0.6325 µM): 0.134
relative viability ([3]; first compound 2 µM): 0.107
relative viability ([3]; first compound 6.325 µM): 0.112
relative viability ([3]; first compound 20 µM): 0.122
relative viability ([4]; first compound 0.2 µM): 1.31
relative viability ([4]; first compound 0.6325 µM): 1.29
relative viability ([4]; first compound 2 µM): 1.45
relative viability ([4]; first compound 6.325 µM): 0.87
relative viability ([4]; first compound 20 µM): 1.05
relative viability ([7]; first compound 0.2 µM): 0.615
relative viability ([7]; first compound 0.6325 µM): 0.718
relative viability ([7]; first compound 2 µM): 0.679
relative viability ([7]; first compound 6.325 µM): 0.677
relative viability ([7]; first compound 20 µM): 0.436
relative viability ([9]; first compound 0.2 µM): 0.548
relative viability ([9]; first compound 2 µM): 0.611
relative viability ([9]; first compound 6.325 µM): 0.507
relative viability ([9]; first compound 20 µM): 0.662
relative viability ([10]; first compound 0.2 µM): 0.564
relative viability ([10]; first compound 0.6325 µM): 0.652
relative viability ([10]; first compound 2 µM): 0.446
relative viability ([10]; first compound 6.325 µM): 0.455
relative viability ([10]; first compound 20 µM): 0.439

Cc1csc(=NC2CCCCC2)n1/N=C/c1ccc(O)c(O)c1O [MIM1] + Nc1ncn([C@H]2C[C@H](O)[C@@H](CO)O2)c(=O)n1 [Decitabine] (partner 2 µM)
relative viability ([2]; first compound 0.2 µM): 0.905
relative viability ([2]; first compound 0.6325 µM): 0.85
relative viability ([2]; first compound 2 µM): 0.866
relative viability ([2]; first compound 6.325 µM): 0.479
relative viability ([2]; first compound 20 µM): 0.405
relative viability ([4]; first compound 0.2 µM): 0.286
relative viability ([4]; first compound 0.6325 µM): 0.273
relative viability ([4]; first compound 2 µM): 0.231
relative viability ([4]; first compound 6.325 µM): 0.327
relative viability ([4]; first compound 20 µM): 0.246
relative viability ([7]; first compound 0.2 µM): 0.523
relative viability ([7]; first compound 0.6325 µM): 0.376
relative viability ([7]; first compound 2 µM): 0.486
relative viability ([7]; first compound 6.325 µM): 0.382
relative viability ([7]; first compound 20 µM): 0.35
relative viability ([9]; first compound 0.2 µM): 0.784
relative viability ([9]; first compound 2 µM): 0.728
relative viability ([9]; first compound 6.325 µM): 0.502
relative viability ([9]; first compound 20 µM): 0.426
relative viability ([10]; first compound 0.2 µM): 0.622
relative viability ([10]; first compound 0.6325 µM): 0.74
relative viability ([10]; first compound 2 µM): 0.736
relative viability ([10]; first compound 6.325 µM): 0.642
relative viability ([10]; first compound 20 µM): 0.653
relative viability ([11]; first compound 0.2 µM): 0.217
relative viability ([11]; first compound 0.6325 µM): 0.208
relative viability ([11]; first compound 2 µM): 0.353
relative viability ([11]; first compound 6.325 µM): 0.272
relative viability ([11]; first compound 20 µM): 0.0686
